What all share (assay type): cell-based
In experiment [1] the test system is panel of 21 bladder cancer cell lines. In words: 18-day viability, summary over the panel. Conditions: 432 h. From the text: Black bar indicates cell line carrying at least one ARID1A stop-gain (denoted by an *) or frameshift (fs) allele as detailed below the chart. Green bar indicates line carrying a single missense mutation, while grey bars indicate those lines with no mutations in the coding region of ARID1A. Data represented as an average of duplicate wells±SD and are representative of duplicate independent experiments.
The cell lines used were obtained from ATCC (Manassas, VA), DSMZ (Braunschweig, Germany), ECACC (Salisbury, UK or through Sigma), or JCRB (Osaka, Japan) and were grown in media recommended by the vendor (or indicated in supplementary methods table 1) and maintained at 37° C. in humidified incubators with 5% CO2. Cell lines were maintained in T75 flasks and subcultured by releasing from plates with TrypLE solution (Thermo Fisher Scientific/Invitrogen #12604021) every 2-4 days, depending on growth kinetics of the cell line, to maintain growth at subconfluent levels.
A panel of 21 bladder cancer cell lines was evaluated for their response to Compound 1. […] No association between Compound 1 sensitivity and baseline levels of EZH1, EZH2, H3K27me3, ARID1A or ARID1B by western blot were observed.

For experiment [2], the system named is H3K27me3 levels in T24 cells. In words: H3K27me3 level, 3-day MSD ELISA. Conditions: Homo sapiens, T-24, T24, H3K27me3, 72 hours. How it is done: (§1) FIG. 3 represents normalized global H3K27me levels in HT1197 (left) and T24 (right) cell lines following 72 hours of treatment across a dose range of Compound 1. Data represented as average of triplicate wells±SD and are representative of quadruplicate independent experiments.
(§2) H3K27me3 and total H3 expression levels in cells and tumor tissues were analyzed by Meso Scale Discovery (MSD) ELISA. For assays with cultured cell lines, trypsinzed cells were counted using a Countess® cell counter (Life Technologies) and plated in 100 μL of cell culture medium onto 96-well tissue culture treated plates containing Compound 1 (9 concentrations in a series of 3-fold dilutions) and incubated at 37° C. in 5% CO2 for 24-96 hours, depending on the assay.
(§3) As with EZH2 inhibitors in other cancer cell line contexts, the cell viability effects in Compound 1 sensitive bladder cancer cell lines are time-dependent.
(ELISA stands for enzyme-linked immunosorbent assay.)

The subject of experiment [3] is H3K27me3 levels in HT1197 cells. In words: H3K27me3 level, 3-day MSD ELISA. Conditions: Homo sapiens, HT1197, H3K27me3, 72 hours. How it is done:
as §1, §2, §3

Experiment [4] in a line: long-term cell viability assays in vitro, comparison of PRC2 inhibitors. The procedure:
Response of Compound 1 treatment relative to other EZH2, dual EZH1 and EZH2, or EED inhibitors was analyzed in vitro and in vivo.

The test system of the next experiment is T24 cells. In words: cell cycle profile / subG1 population. Conditions: T24, prolonged treatment.
Setting [5] is: average of replicates, read-out: EC50 (nM) 3-day MSD Avg.
[6] abbreviates: replicate 1, read-out: EC50 (nM) 3-day MSD Replicate 1.
The mark [7] stands for this setting: replicate 2, read-out: EC50 (nM) 3-day MSD Replicate 2.

Read-outs that look alike come from different tables or passages of the source. A value given as a limit tells only on which side of the number the result lay.

Turning to `COC1CN([C@H]2CC[C@H]([C@@]3(C)Oc4c(Cl)cc(C(=O)NCc5c(SC)cc(C)[nH]c5=O)c(C)c4O3)CC2)C1` [Compound 1, (R)-7-chloro-2-((1r,4R)-4-(3-methoxyazetidin-1-yl)cyclohexyl)-2,4-dimethyl-N-((6-methyl-4-(methylthio)-2-oxo-1,2-dihydropyridin-3-yl)methyl)benzo[d][1,3]dioxole-5-carboxamide], the GI50 in experiment [1] (sensitive subset (6) of the bladder cancer lines, after 18 days of treatment, read-out: GI50) is 3 to 37 nM; in experiment [1] (unresponsive (resistant) lines (15), 18 days, read-out: 18-day GI50), more than 5000 nM; in experiment [4], approximately 5 nM. The EC50 was 0.401 nM in experiment [2] (setting [5]); 0.323 nM in experiment [2] (setting [6]); 0.373 nM in experiment [2] (setting [7]); 0.506 nM in experiment [2] (replicate 3, read-out: EC50 (nM) 3-day MSD Replicate 3); 0.109 nM in experiment [3] (setting [5]); 0.077 nM in experiment [3] (setting [6]). The EC50 in experiment [3] (setting [7]) was 0.141 nM. Besides, the cell cycle profile entry in the experiment on T24 cells was “remain unchanged”.

In general, GI50 refers to the concentration giving 50% growth inhibition. The EC50 is the concentration that produces a half-maximal response.

The values are drawn from patent US20260021082A1, “EZH2 INHIBITION THERAPIES FOR THE TREATMENT OF AT-RICH INTERACTIVE DOMAIN-CONTAINING PROTEIN 1A (ARID1A) MUTATED CANCERS” (Constellation Pharmaceuticals, Inc., priority 2022, published 2026).
